In publication PMC3259201 (European Journal of Medicinal Chemistry, 2011):
“Also recorded” adds a separate entry of the source.

Tested on: HIV-1 NL4-3 strain
Assay: HIV-1 infectivity assay, single cycle infection of TZM-bl cells
Assay type: cell-based
Settings: wild-type HIV-1 NL4-3 strain

Structure (SMILES)	anti-HIV activity (in words)
CC1(C)Oc2cc(O)c3c(=O)c4ccccc4oc3c2[C@@H](OC(=O)[C@@]23CCC(C)(C(=O)O2)C3(C)C)[C@H]1OC(=O)[C@@]12CCC(C)(C(=O)O1)C2(C)C [Compound 9, 1R,2R-(-)-Dicamphanoyl-3,3-dimethyl-6-hydroxy-1,2-dihydropyrano[2,3-c]xanthen-7(1H)-one]	did not show notable activity or selectivity; also recorded: did not exhibit anti-HIV activity
COc1cc2c(c3oc4c(C)cccc4c(=O)c13)[C@@H](OC(=O)C13CCC(C)(C(=O)O1)C3(C)C)[C@@H](OC(=O)C13CCC(C)(C(=O)O1)C3(C)C)C(C)(C)O2 (stereo partly drawn) [Compound 10, 1R,2R-(-)-Dicamphanoyl-3,3,11-trimethyl-6-methoxy-1,2-dihydropyrano[2,3-c]xanthen-7(1H)-one]	almost inactive
COc1cccc2c(=O)c3c(OC)cc4c(c3oc12)[C@@H](OC(=O)[C@@]12CCC(C)(C(=O)O1)C2(C)C)[C@@H](OC(=O)[C@@]12CCC(C)(C(=O)O1)C2(C)C)C(C)(C)O4 [Compound 14, 1R,2R-(-)-Dicamphanoyl-3,3-dimethyl-6,11-dimethoxy-1,2-dihydropyrano[2,3-c]xanthen-7(1H)-one]	no detectable anti-HIV activity or selectivity
